Test results published in ChEMBL document CHEMBL1146534, “Synthetic method and biological activities of cis-fused alpha-methylene gamma-lactones” (2003).

What was measured:
Type in all cases: functional
P388 [1] = assay: Cytotoxicity against mouse P388 cells assessed as cell growth inhibitory ratio at 10 ug/mL after 48 hrs relative to control; parameters: scale not given: the % may be the effect or the level left
P388 [2] = assay: Cytotoxicity against mouse P388 cells assessed as cell growth inhibitory ratio at 1 ug/mL after 48 hrs relative to control; parameters: scale not given: the % may be the effect or the level left
Venturia inaequalis [3] = assay: Prevention of Venturia inaequalis-mediated scab of apple disease at 500 ppm by Pot test
Pythium aphanidermatum = assay: Prevention of Pythium aphanidermatum-mediated damping off of cucumber disease at 500 ppm/20 mL per pot after 14 days at 25 degC under green house by Pot test
Rhizoctonia solani = assay: Prevention of Rhizoctonia solani-mediated sheath blight of rice disease at 500 ppm after 4 days at 28 degC by Pot test
P388 [4] = assay: Cytotoxicity against mouse P388 cells assessed as cell growth inhibitory ratio at 0.1 ug/mL after 48 hrs relative to control; parameters: scale not given: the % may be the effect or the level left
Blumeria graminis = assay: Prevention of Erysiphe graminis-mediated powdery mildew of wheat disease at 500 ppm after 10 days at 22 deg C under fluorescent lamp by Pot test
Alternaria [5] = assay: Antimicrobial activity against Alternaria kikuchiana at 100 ppm after 4 days at 28 degC
Pyrenophora graminea [6] = assay: Antimicrobial activity against Pyrenophora graminea at 50 ppm after 4 days at 28 degC
Mycosphaerella [7] = assay: Antimicrobial activity against Mycosphaerella melonis at 200 ppm after 4 days at 28 degC
Pyrenophora graminea [8] = assay: Antimicrobial activity against Pyrenophora graminea at 200 ppm after 4 days at 28 degC
Mycosphaerella [9] = assay: Antimicrobial activity against Mycosphaerella melonis at 100 ppm after 4 days at 28 degC
Rhynchosporium secalis [10] = assay: Antimicrobial activity against Rhynchosporium secalis at 50 ppm after 11 days at 18 degC
Alternaria [11] = assay: Antimicrobial activity against Alternaria kikuchiana at 200 ppm after 4 days at 28 degC
Pyrenophora graminea [12] = assay: Antimicrobial activity against Pyrenophora graminea at 100 ppm after 4 days at 28 degC
Alternaria [13] = assay: Antimicrobial activity against Alternaria kikuchiana at 50 ppm after 4 days at 28 degC
Mycosphaerella [14] = assay: Antimicrobial activity against Mycosphaerella melonis at 50 ppm after 4 days at 28 degC
Rhynchosporium secalis [15] = assay: Antimicrobial activity against Rhynchosporium secalis at 100 ppm after 11 days at 18 degC
Venturia inaequalis [16] = assay: Antimicrobial activity against Venturia inaequalis at 200 ppm after 11 days at 18 degC
Rhynchosporium secalis [17] = assay: Antimicrobial activity against Rhynchosporium secalis at 200 ppm after 11 days at 18 degC
Venturia inaequalis [18] = assay: Antimicrobial activity against Venturia inaequalis at 100 ppm after 11 days at 18 degC
Venturia inaequalis [19] = assay: Antimicrobial activity against Venturia inaequalis at 50 ppm after 11 days at 18 degC

Row | SMILES | Activity (P388 [1]) [%] | Activity (P388 [2]) [%] | Activity (Venturia inaequalis [3]) [%] | Activity (Pythium aphanidermatum) [%] | Activity (Rhizoctonia solani) [%] | Activity (P388 [4]) [%] | Activity (Blumeria graminis) [%] | further results
1 | C=C1C(=O)O[C@H]2CCCCC[C@@H]12 | 102 | 76 | 90 | 0 | 0 | 9 | 0 | 
2 | C=C1C(=O)O[C@H]2CC[C@H](C)CC[C@@H]12 | 102 | 50 | 0 | 100 | 0 | 15 | 0 | 
3 | C=C1C(=O)O[C@H]2CC[C@@H](C)CC[C@@H]12 | 101 | 69 | 0 | 70 | 0 | 38 | 0 | 
4 | C=C1C(=O)O[C@H]2[C@@H](O)CCCC[C@@H]12 | 100 | 40 | 0 | 100 | 50 | 11 | 50 | Activity (Alternaria [5]): 20%; Activity (Pyrenophora graminea [6]): 0%; Activity (Mycosphaerella [7]): 100%; Activity (Pyrenophora graminea [8]): 50%; Activity (Mycosphaerella [9]): 80%; Activity (Rhynchosporium secalis [10]): 30%; Activity (Alternaria [11]): 40%; Activity (Pyrenophora graminea [12]): 0%; Activity (Alternaria [13]): 0%; Activity (Mycosphaerella [14]): 70%; Activity (Rhynchosporium secalis [15]): 60%; Activity (Venturia inaequalis [16]): 0%; Activity (Rhynchosporium secalis [17]): 100%; Activity (Venturia inaequalis [18]): 50%
5 | CC1=C2CCCCC[C@@H]2OC1=O | 43 | 4 |  |  |  | 7 |  | 
6 | O=C1C[C@@H]2CCCC[C@H](O)[C@@H]2O1 |  |  | 0 | 0 | 0 |  | 90 | Activity (Alternaria [5]): 0%; Activity (Pyrenophora graminea [6]): 0%; Activity (Mycosphaerella [7]): 0%; Activity (Pyrenophora graminea [8]): 0%; Activity (Mycosphaerella [9]): 0%; Activity (Rhynchosporium secalis [10]): 0%; Activity (Alternaria [11]): 0%; Activity (Pyrenophora graminea [12]): 0%; Activity (Venturia inaequalis [19]): 0%; Activity (Alternaria [13]): 0%; Activity (Mycosphaerella [14]): 0%; Activity (Rhynchosporium secalis [15]): 0%; Activity (Venturia inaequalis [16]): 0%; Activity (Rhynchosporium secalis [17]): 0%; Activity (Venturia inaequalis [18]): 0%
7 | C=C1C(=O)O[C@H]2[C@@H](OC(C)=O)CCCC[C@@H]12 | 102 | 21 | 0 | 100 | 30 | 9 | 30 | 
